Test results as given in US20240252524A1 (Hovione Scientia Limited, priority 2021, published 2024).
Several values for one entry are separate records, joined by “and”; a condition that tells them apart may be missing. Equal entries are not always repeated. Where two headings read alike, the source gives them in different places.

Experiments:
[1] = Particle size by laser diffraction (Sympatec HELOS) before/after high shear mixing; type: physicochemical
Text: The particle size data were obtained from a Sympatec module HELOS (Helium-Neon Laser Optical System), dispersion Unit RODOS/M, potent products accessory ASPIROS, lens R5 (4.50 μm-875 μm) and R4 (1.80 μm-350 μm), conditions R5, 0.1 bar-1 bar, 18 mm/s, R4, 3 bar, 18 mm/s

[2] = cited from earlier work
[3] = cited from earlier work; remark: listed apart in the source
[4] = Stability of ivermectin under the high shear mixer process; type: physicochemical; conditions: high shear mixer process of the invention
Text: Under the conditions set forth in this invention, ivermectin is submitted to high shear forces without suffering decomposition. High shear mixing processes provide stressful conditions which promote decomposition of the compounds submitted to such processes. The stressful conditions involve recirculating mixtures of the compounds with solvents, at very high speed, through mechanical systems which generate unaligned forces, driving to strong collisions between the particles and the mechanical parts of the high shear mixer and between the particles themselves. Such collisions break the particles of the product thus reducing their particle size. A side effect of the mechanical collisions is a significant increase in the temperature during the high shear mixer process. […] In fact, ivermectin is purified with good yields under the high shear process conditions set forth in this invention.

[5] = room temperature, cited from earlier work

## Ivermectin
[1]; Example 1: ethanol/water/formamide/methylparaben, 2000 RPM, about 3 hours, 0-5° C.
  D (90) after high shear mixing: 56 μm
[1]; Example 2: ethanol/water/formamide/BHA, 2000 RPM, about 3 hours, 0-5° C.
  Dv(90) after high shear mixing: 53 μm
[1]; Example 3: ethanol (100 ml)/water (50 ml)/formamide/methylparaben, 2000 RPM, about 3 hours, 0-5° C.
  Dv(90) after high shear mixing: 57 μm
[1]; Example 4: water/isopropanol/formamide/methylparaben, 2000 RPM, about 3 hours, 0-5° C.
  Dv(90) after high shear mixing: 56 μm
[1]; Example 5: water (16 ml)/ethanol (16 ml)/formamide, 1000 RPM, about 2 hours, 0-5° C.
  Dv(90) after high shear mixing: 42 μm
[1]; Example 6: water (26 ml)/ethanol (30 ml)/formamide, 1000 RPM, about 2 hours, 0-5° C.
  Dv(90) after high shear mixing: 36 μm
[1]; Example 7: water (1 ml)/ethanol (30 ml)/formamide, 1000 RPM, about 2 hours, 0-5° C.
  Dv(90) after high shear mixing: 56 μm
[1]; before high shear mixing
  D (90) / Dv(90) of starting ivermectin: 301 μm and 295 μm and 300 μm
[2]
  optimum pH for ivermectin stability in solution: 6.3
[3]
  solubility in water: low solubility in water
[4]
  decomposition under high shear mixer process: did not decompose the product
[5]; Acetone
  Pharmacopoeia Classification: Soluble
  Solubility: 81 mg/mL
[5]; Diethyl ether
  Pharmacopoeia Classification: Soluble
  Solubility: 61 mg/mL
[5]; Dimethylformamide
  Pharmacopoeia Classification: Freely soluble
  Solubility: 510 mg/mL
[5]; Ethanol
  Pharmacopoeia Classification: Soluble
  Solubility: 97 mg/mL
[5]; Ethyl acetate
  Pharmacopoeia Classification: Freely soluble
  Solubility: 240 mg/mL
[5]; Isopropanol (2-propanol)
  Pharmacopoeia Classification: Soluble
  Solubility: 70 mg/mL
[5]; Methanol
  Pharmacopoeia Classification: Freely soluble
  Solubility: 220 mg/mL
[5]; Methyl Ethyl ketone
  Pharmacopoeia Classification: Freely soluble
  Solubility: 320 mg/mL
[5]; Tetrahydrofuran
  Pharmacopoeia Classification: Freely soluble
  Solubility: 390 mg/mL
[5]; Toluene
  Pharmacopoeia Classification: Soluble
  Solubility: 63 mg/mL
[5]; Water
  Pharmacopoeia Classification: Practically Insoluble
  Solubility: 0.000001 mg/mL
[5]; n-Hexane
  Pharmacopoeia Classification: Slightly soluble
  Solubility: 0.69 mg/mL
[5]; p-Dioxane
  Pharmacopoeia Classification: Freely soluble
  Solubility: 430 mg/mL
